According to patent publication US6960574B2, “Antagonists of RF-amide neuropeptides” (University of Florida, priority 2002, dated 2005):
Square brackets hold non-standard residues; d marks the D form. Peptide text beside a SMILES is read from it. * marks the point of attachment. ξ: configuration not given here. Dansyl = CN(C)c1cccc2c(S(=O)(=O)*)cccc12; ξL = CC(C)CC(N)C(=O)O

System: receptor labeled by the radioiodinated analogue of 1 (4, [125I]-YLFQPQRF-NH2); neuropeptide FF receptor
Assay: Competitive radioligand binding against 4 ([125I]Y8F-amide)
Conditions: mixture-based positional scanning; difference from averaged radioligand displacement of whole library (0); about 80 a.u. = 10-fold change in Ki
Excerpt: Additionally, three-dimensional (3-D) molecular models of the known smaller-size neuropeptide FF antagonists 3 and 3a were constructed and their low-energy conformations were obtained in the AMBER force-field [Weiner, et al., J. Comput. Chem. 1986, 7, […].] by molecular dynamics calculations involving simulated annealing. A semi-empirical quantum chemical method with the PM3 parameterization [Stewart, J. Comput. Chem. 1989, 10, 209-220.] was used for the final geometry optimization. […] At least one of the rings in domain B is aromatic. No similarity between 3 and 3a outside these domains were apparent; therefore, the simultaneous presence of A and B domains in the structure of neuropeptide FF (1) antagonists is critical to the invention. Apparently, structural subunits (domain C) outside domains A and B should function in a cooperative manner in directing the pharmacophores into proper geometric positions when improved binding to the cognate receptor is to be obtained, which is associated with the improvement of the desired pharmacological effect. An approach involving mixture-based synthetic combinatorial libraries and positional scanning [(a) Houghten, et al., J. Med Chem. 1999, 42, 3743-3778.] was adopted in the search for preferred structural motifs in domain C that assist in achieving this objective in this invention. To allow for the use of 3 as a reference in this process, the guadinino group (A) was incorporated as part of an L-2-amino-5-{[amino(imino)methyl]amino}pentanoyl (arginyl, R, Arg) residue and 5-dimethylamino-1-naphthalenesulphonyl (dansyl) was chosen to form B (However, it must be emphasized that both R and dansyl are replaceable with moieties that bestow A and B domain attributes described in the invention).
Upon screening for residues to replace the glutamine of 3, serine (S) was the only building block in this position that increased the displacement of 4 in the radioligand-binding assay. Therefore, motifs present in dansyl-Gly-Ser-Arg-NH2, dansyl-Gly-Gln-Arg-NH2, dansyl-Gln-Ser-Arg-NH2, and dansyl-Gln-Gln-Arg-NH2 were chosen based on their affinity to the cognate receptor for further consideration as primary templates when designing the domain C of the compounds described in the invention herein. […]

| SMILES | Relative Binding Index (RBI) [a.u.] |
| --- | --- |
| C[C@H](NC(=O)[C@H](C)NS(=O)(=O)c1cccc2c(N(C)C)cccc12)C(=O)N[C@@H](CCCNC(=N)N)C(N)=O [Dansyl-AAR-amide] (Dansyl-Ala-Ala-Arg-NH2) | −37 |
| C[C@H](NS(=O)(=O)c1cccc2c(N(C)C)cccc12)C(=O)N[C@@H](CC(=O)O)C(=O)N[C@@H](CCCNC(=N)N)C(N)=O [Dansyl-ADR-amide] (Dansyl-Ala-Asp-Arg-NH2) | −6 |
| C[C@H](NS(=O)(=O)c1cccc2c(N(C)C)cccc12)C(=O)N[C@@H](CCC(=O)O)C(=O)N[C@@H](CCCNC(=N)N)C(N)=O [Dansyl-AER-amide] (Dansyl-Ala-Glu-Arg-NH2) | 12 |
| C[C@H](NS(=O)(=O)c1cccc2c(N(C)C)cccc12)C(=O)N[C@@H](Cc1ccccc1)C(=O)N[C@@H](CCCNC(=N)N)C(N)=O [Dansyl-AFR-amide] (Dansyl-Ala-Phe-Arg-NH2) | 11 |
| C[C@H](NS(=O)(=O)c1cccc2c(N(C)C)cccc12)C(=O)NCC(=O)N[C@@H](CCCNC(=N)N)C(N)=O [Dansyl-AGR-amide] (Dansyl-Ala-Gly-Arg-NH2) | 18 |
| C[C@H](NS(=O)(=O)c1cccc2c(N(C)C)cccc12)C(=O)N[C@@H](Cc1c[nH]cn1)C(=O)N[C@@H](CCCNC(=N)N)C(N)=O [Dansyl-AHR-amide] (Dansyl-Ala-His-Arg-NH2) | 6 |
| CC[C@H](C)[C@H](NC(=O)[C@H](C)NS(=O)(=O)c1cccc2c(N(C)C)cccc12)C(=O)N[C@@H](CCCNC(=N)N)C(N)=O [Dansyl-AIR-amide] (Dansyl-Ala-Ile-Arg-NH2) | 19 |
| C[C@H](NS(=O)(=O)c1cccc2c(N(C)C)cccc12)C(=O)N[C@@H](CCCCN)C(=O)N[C@@H](CCCNC(=N)N)C(N)=O [Dansyl-AKR-amide] (Dansyl-Ala-Lys-Arg-NH2) | 10 |
| CC(C)CC(NC(=O)[C@H](C)NS(=O)(=O)c1cccc2c(N(C)C)cccc12)C(=O)N[C@@H](CCCNC(=N)N)C(N)=O (some centres unmarked) [Dansyl-ALR-amide] (Dansyl-Ala-[ξL]-Arg-NH2) | 4 |
| CSCC[C@H](NC(=O)[C@H](C)NS(=O)(=O)c1cccc2c(N(C)C)cccc12)C(=O)N[C@@H](CCCNC(=N)N)C(N)=O [Dansyl-AMR-amide] (Dansyl-Ala-Met-Arg-NH2) | 12 |
| C[C@H](NS(=O)(=O)c1cccc2c(N(C)C)cccc12)C(=O)N[C@@H](CC(N)=O)C(=O)N[C@@H](CCCNC(=N)N)C(N)=O [Dansyl-ANR-amide] (Dansyl-Ala-Asn-Arg-NH2) | 13 |
| C[C@H](NS(=O)(=O)c1cccc2c(N(C)C)cccc12)C(=O)N1CCC[C@H]1C(=O)N[C@@H](CCCNC(=N)N)C(N)=O [Dansyl-APR-amide] (Dansyl-Ala-Pro-Arg-NH2) | 15 |
| C[C@H](NS(=O)(=O)c1cccc2c(N(C)C)cccc12)C(=O)N[C@@H](CCC(N)=O)C(=O)N[C@@H](CCCNC(=N)N)C(N)=O [Dansyl-AQR-amide] (Dansyl-Ala-Gln-Arg-NH2) | 26 |
| C[C@H](NS(=O)(=O)c1cccc2c(N(C)C)cccc12)C(=O)N[C@@H](CCCNC(=N)N)C(=O)N[C@@H](CCCNC(=N)N)C(N)=O [Dansyl-ARR-amide] (Dansyl-Ala-Arg-Arg-NH2) | 11 |
| C[C@H](NS(=O)(=O)c1cccc2c(N(C)C)cccc12)C(=O)N[C@@H](CO)C(=O)N[C@@H](CCCNC(=N)N)C(N)=O [Dansyl-ASR-amide] (Dansyl-Ala-Ser-Arg-NH2) | 33 |
| C[C@H](NS(=O)(=O)c1cccc2c(N(C)C)cccc12)C(=O)N[C@H](C(=O)N[C@@H](CCCNC(=N)N)C(N)=O)[C@@H](C)O [Dansyl-ATR-amide] (Dansyl-Ala-Thr-Arg-NH2) | 18 |
| CC(C)[C@H](NC(=O)[C@H](C)NS(=O)(=O)c1cccc2c(N(C)C)cccc12)C(=O)N[C@@H](CCCNC(=N)N)C(N)=O [Dansyl-AVR-amide] (Dansyl-Ala-Val-Arg-NH2) | 7 |
| C[C@H](NS(=O)(=O)c1cccc2c(N(C)C)cccc12)C(=O)N[C@@H](Cc1c[nH]c2ccccc12)C(=O)N[C@@H](CCCNC(=N)N)C(N)=O [Dansyl-AWR-amide] (Dansyl-Ala-Trp-Arg-NH2) | 21 |

| SMILES | Relative Binding Index (RBI) [a.u.] |
| --- | --- |
| C[C@H](NS(=O)(=O)c1cccc2c(N(C)C)cccc12)C(=O)N[C@@H](Cc1ccc(O)cc1)C(=O)N[C@@H](CCCNC(=N)N)C(N)=O [Dansyl-AYR-amide] (Dansyl-Ala-Tyr-Arg-NH2) | 11 |
| C[C@H](NC(=O)[C@H](CC(=O)O)NS(=O)(=O)c1cccc2c(N(C)C)cccc12)C(=O)N[C@@H](CCCNC(=N)N)C(N)=O [Dansyl-DAR-amide] (Dansyl-Asp-Ala-Arg-NH2) | −55 |
| CN(C)c1cccc2c(S(=O)(=O)N[C@@H](CC(=O)O)C(=O)N[C@@H](CC(=O)O)C(=O)N[C@@H](CCCNC(=N)N)C(N)=O)cccc12 [Dansyl-DDR-amide] (Dansyl-Asp-Asp-Arg-NH2) | −24 |
| CN(C)c1cccc2c(S(=O)(=O)N[C@@H](CC(=O)O)C(=O)N[C@@H](CCC(=O)O)C(=O)N[C@@H](CCCNC(=N)N)C(N)=O)cccc12 [Dansyl-DER-amide] (Dansyl-Asp-Glu-Arg-NH2) | −5 |
| CN(C)c1cccc2c(S(=O)(=O)N[C@@H](CC(=O)O)C(=O)N[C@@H](Cc3ccccc3)C(=O)N[C@@H](CCCNC(=N)N)C(N)=O)cccc12 [Dansyl-DFR-amide] (Dansyl-Asp-Phe-Arg-NH2) | −7 |
| CN(C)c1cccc2c(S(=O)(=O)N[C@@H](CC(=O)O)C(=O)NCC(=O)N[C@@H](CCCNC(=N)N)C(N)=O)cccc12 [Dansyl-DGR-amide] (Dansyl-Asp-Gly-Arg-NH2) | 0 |
| CN(C)c1cccc2c(S(=O)(=O)N[C@@H](CC(=O)O)C(=O)N[C@@H](Cc3c[nH]cn3)C(=O)N[C@@H](CCCNC(=N)N)C(N)=O)cccc12 [Dansyl-DHR-amide] (Dansyl-Asp-His-Arg-NH2) | −11 |
| CC[C@H](C)[C@H](NC(=O)[C@H](CC(=O)O)NS(=O)(=O)c1cccc2c(N(C)C)cccc12)C(=O)N[C@@H](CCCNC(=N)N)C(N)=O [Dansyl-DIR-amide] (Dansyl-Asp-Ile-Arg-NH2) | 1 |
| CN(C)c1cccc2c(S(=O)(=O)N[C@@H](CC(=O)O)C(=O)N[C@@H](CCCCN)C(=O)N[C@@H](CCCNC(=N)N)C(N)=O)cccc12 [Dansyl-DKR-amide] (Dansyl-Asp-Lys-Arg-NH2) | −8 |
| CC(C)C[C@H](NC(=O)[C@H](CC(=O)O)NS(=O)(=O)c1cccc2c(N(C)C)cccc12)C(=O)N[C@@H](CCCNC(=N)N)C(N)=O [Dansyl-DLR-amide] (Dansyl-Asp-Leu-Arg-NH2) | −14 |
| CSCC[C@H](NC(=O)[C@H](CC(=O)O)NS(=O)(=O)c1cccc2c(N(C)C)cccc12)C(=O)N[C@@H](CCCNC(=N)N)C(N)=O [Dansyl-DMR-amide] (Dansyl-Asp-Met-Arg-NH2) | −6 |
| CN(C)c1cccc2c(S(=O)(=O)N[C@@H](CC(=O)O)C(=O)N[C@@H](CC(N)=O)C(=O)N[C@@H](CCCNC(=N)N)C(N)=O)cccc12 [Dansyl-DNR-amide] (Dansyl-Asp-Asn-Arg-NH2) | −4 |
| CN(C)c1cccc2c(S(=O)(=O)N[C@@H](CC(=O)O)C(=O)N3CCC[C@H]3C(=O)N[C@@H](CCCNC(=N)N)C(N)=O)cccc12 [Dansyl-DPR-amide] (Dansyl-Asp-Pro-Arg-NH2) | −2 |
| CN(C)c1cccc2c(S(=O)(=O)N[C@@H](CC(=O)O)C(=O)N[C@@H](CCC(N)=O)C(=O)N[C@@H](CCCNC(=N)N)C(N)=O)cccc12 [Dansyl-DQR-amide] (Dansyl-Asp-Gln-Arg-NH2) | 8 |
| CN(C)c1cccc2c(S(=O)(=O)N[C@@H](CC(=O)O)C(=O)N[C@@H](CCCNC(=N)N)C(=O)N[C@@H](CCCNC(=N)N)C(N)=O)cccc12 [Dansyl-DRR-amide] (Dansyl-Asp-Arg-Arg-NH2) | −7 |
| CN(C)c1cccc2c(S(=O)(=O)N[C@@H](CC(=O)O)C(=O)N[C@@H](CO)C(=O)N[C@@H](CCCNC(=N)N)C(N)=O)cccc12 [Dansyl-DSR-amide] (Dansyl-Asp-Ser-Arg-NH2) | 15 |
| C[C@@H](O)[C@H](NC(=O)[C@H](CC(=O)O)NS(=O)(=O)c1cccc2c(N(C)C)cccc12)C(=O)N[C@@H](CCCNC(=N)N)C(N)=O [Dansyl-DTR-amide] (Dansyl-Asp-Thr-Arg-NH2) | 0 |
